From patent US20040048827A1, “S-adenosylmethionine and derivatives thereof for the treatment and prevention of alzheimer's disease” (priority 2000, published 2004)
“Also recorded” adds a separate entry of the source.

Tests used:
[1] = tested on: presenilin-1 protein; assay: Western blot of presenilin-1 protein in SK-N-SH cells; assay type: cell-based, human; settings: DM with 100 μM SAM, 120 hours (5 days) of culture
Experimental: (§1) SK-N-SH human neuroblastoma cell line was cultured, respectively, in HAM F14 (14) medium supplemented with 8-% foetal calf serum (GM), in F14 medium supplemented with 1% foetal calf serum and 10 μM retinopic acid (DM) and in DM, in the presence of 100 μM SAM. The cultures were re-fed every second day with the appropriate medium. The times indicate-are referred-to medium change as O-day.
(§2) Detergent lysates were prepared from SK-N-SH cells in the presence of protease inhibitors (leupeptin, pepstatin, PMSF, 5 μg/ml each); protein extracts were performed after 5 days of culture in either GM or DM or DM supplemented with 100 μM SAM.
(§3) 10 μg of each protein extract were run on 8% PAGE for APP analysis and on 12% PAGE for PS1 analysis, and then blotted on nitrocellulose. APP was detected by a monoclonal antibody 22C11 (Boerhinger Mannheim) recognising three major bands at 116, 110, 106 KD. PS1 was detected by a monoclonal antibody (MAB1563 Chemicon) recognising a 31 KD band.

[2] = tested on: SK-N-SH human neuroblastoma cells; assay: HPLC assay of S-adenosylmethionine passage into the cells; assay type: in vitro ADME
Experimental: as §1
Cell cultures were rinsed twice with phosphate buffered saline and frozen at −80° C. After thawing cells were scraped into 1 ml of deionized water and sonified for 15 seconds in ice. The macromolecules were precipitated from 1.5 M PCA at 4° C. for 1 hour adjusting the pH at 4-5 with KOH and then centrifuged for 15 minutes at 9000×g. The supernatants were freeze-dried. The HPLC measurements were carried out using a Varian HPLC System. The samples were dissolved in water and injected onto reverse-phase column (C-18) using a water-acetonitrile mobile-phase.

[3] = tested on: β-amyloid protein precursor (APP) gene; assay: RT-PCR expression of β-amyloid protein precursor gene in SK-N-SH cells; assay type: cell-based, human
Experimental: as §1
(§4) Total RNA extraction was carried out using the acidified phenol procedure. For the expression studies by RT-PCR a reverse transcription was performed with 1 μg of total RNA using 50 pmol of oligo-d(T>)16 with 50 units of M-MuLV reverse transcriptase at 42° C. for one hour, followed by heat inactivation at 94° C. for 5 minutes. […] The subsequent amplification reactions were carried out for 20 to 30 cycles (1′ at 94° C., 1′ at annealing temperature, 1′30″ at 72° C.). The use of β-actin as internal standard allowed to control the processing of equal amount samples.
(§5) Aliquots of the PCR products (15 μl) were examined by electrophoresis in 1.5% agarose gel. Each gel was scanned by a CCD camera and acquired on a computerised densitometer. The specificity of the fragments was assessed by restriction analysis.

[4] = tested on: Adam 10 gene; assay: RT-PCR expression of Adam 10 (α-secretase) gene in SK-N-SH cells; assay type: cell-based, human; settings: SAM in DM, 48 and 96 hours of culture (signal apparent only at 48 hours)
Experimental: as §1, §4, §5

[5] = tested on: β-secretase gene; assay: RT-PCR expression of β-secretase gene in SK-N-SH cells; assay type: cell-based, human
Experimental: as §1, §4, §5

[6] = tested on: 1-40 β-amyloid peptide; assay: ELISA of 1-40 β-amyloid peptide production in SK-N-SH cell culture supernatants; assay type: cell-based, human; settings: SAM in DM vs DM, supernatants after 96 and 120 hours, normalised to cell protein
Experimental: as §1
Cell culture supernatants were collected and frozen after 96 and 120 hours from the beginning of the culture. Successively they were concentrated using Amicon micro-concentrators according to the manufacturer instructions. 100 μl of concentrated medium were used to perform the immunoassay employing, according to the manufacturer instructions, the Biosource International kit for the detection of 1-40 amyloid. The amount of β-amyloid was normalised to the concentration of the proteins extracted from the corresponding cell lysates.

[7] = tested on: Notch1 gene; assay: RT-PCR expression of Notch1 gene in SK-N-SH cells; assay type: cell-based, human; settings: SAM in DM, 48 and 96 hours of culture
Experimental: as §1, §4, §5

[8] = tested on: APP; assay: Western blot of APP in SK-N-SH cells; assay type: cell-based, human; settings: GM, DM, DM with 100 μM SAM, 120 hours of culture
Experimental: as §1, §2, §3

[9] = tested on: presenilin-1 (PS1) gene; assay: RT-PCR expression of presenilin-1 gene in SK-N-SH cells; assay type: cell-based, human
Experimental: as §1, §4, §5

[10] = tested on: presenilin-2 (PS2) gene; assay: RT-PCR expression of presenilin-2 gene in SK-N-SH cells; assay type: cell-based, human
Experimental: as §1, §4, §5

[11] = tested on: Adam 17 gene; assay: RT-PCR expression of Adam 17 (α-secretase) gene in SK-N-SH cells; assay type: cell-based, human; settings: SAM in DM, 48 and 96 hours of culture
Experimental: as §1, §4, §5

[12] = DM with 100 μM SAM, 96 hours, compared to 96 hours without SAM
[13] = SK-N-SH cells, administration into the cell culture, RT-PCR

For `C[S+](CC[C@H](N)C(=O)O)C[C@H]1O[C@@H](n2cnc3c(N)ncnc32)[C@H](O)[C@@H]1O` (stereo partly drawn) [SAM, S-adenosylmethionine], which “presenilin-1 protein synthesis (Western blot)” value [1] is on record?
The value was “marked reduction”.

What about the “SAM in treated cell lysate relative to endogenous SAM” value [2] of the same compound?
The value was 6 fold.

What about the “APP gene expression at 48 hours” value ([3]; DM with 100 μM SAM, 48 hours) of the same compound?
Its value is “accelerate the gene expression”.

What about the “APP gene expression at 96 hours” value [3, 12] of the same compound?
The value was “did not increase and resulted inhibited”.

And the “Adam 10 gene expression” value [4]?
Its value is “the same as that detectable in DM”.

And the “Adam 10 gene expression” value ([4]; listed as S-adenosylmethionine)?
The value was “increased”.

What about the “β-secretase gene expression at 48 hours” value ([5]; DM with 100 μM SAM, 48 hours) of the same compound?
Its value is “accelerate the gene expression”.

And the “β-secretase gene expression at 96 hours” value [5, 12]?
The value was “did not increase and resulted inhibited”.

What about the “1-40 β-amyloid peptide production” value [6] of the same compound?
Its value is “reduces the same remarkably”.

And the “1-40 β-amyloid peptide production” value ([6]; listed as S-adenosylmethionine)?
Its value is “reduced”.

And the Notch1 gene expression [7]?
Its Notch1 gene expression is “comparable to that observed in GM at 48 hours; also recorded: does not modify”.

And the Notch1 gene expression ([7]; listed as S-adenosylmethionine)?
Its Notch1 gene expression is “increased”.

And the “APP isoforms level (Western blot)” value [8]?
The value was “did not change”.

And the “PS1 gene expression at 48 hours” value ([9]; DM with 100 μM SAM, 48 hours)?
The value was “accelerate the gene expression”.

What about the “PS1 gene expression at 96 hours” value [9, 12] of the same compound?
Its value is “markedly down-regulated”.

What about the “PS2 gene expression at 48 hours” value ([10]; DM with 100 μM SAM, 48 hours) of the same compound?
The value was “accelerate the gene expression”.

What about the “PS2 gene expression at 96 hours” value [10, 12] of the same compound?
Its value is “did not increase and resulted inhibited”.

And the “Adam 17 gene expression” value [11]?
Its value is “over-expression”.

What about the “Adam 17 gene expression” value ([11]; listed as S-adenosylmethionine) of the same compound?
The value was “increased”.

S-adenosylmethionine disulfonate was tested. Which “presenilin-1 protein synthesis (Western blot)” value [1] did it give?
Its value is “dramatic decrease”.

What about the “β-amyloid protein precursor gene expression” value [3, 13] of the same compound?
Its value is “block of the expression increase”.

What about the β-secretase gene expression [5, 13] of the same compound?
Its β-secretase gene expression is “block of the expression increase”.

What about the presenilin-1 gene expression [9, 13] of the same compound?
The presenilin-1 gene expression was “remarkable repression”.

And the presenilin-2 gene expression [10, 13]?
Its presenilin-2 gene expression is “block of the expression increase”.
